Here are results for 37 molecules from patent US20110130380A1, “Heteroaryl Kinase Inhibitors” (priority 2009, published 2011).

A value given as a limit tells only on which side of the number the result lay.

The target in the assay is Cdk9/cyclinT1 (Homo sapiens, UniProt P50750). In words: Cdk9/cyclinT1 IMAP Protocol (fluorescence polarization kinase assay). The following applies: Cdk9_cyclinT1_IC50, Table V; generated using one of the two Cdk9/cyclinT1 assays (IMAP or Alpha Screen), not stated which; ATP 6 uM.

What is called IC50 is the midpoint of a concentration-inhibition curve.

Sequence of Cdk9/cyclinT1 (P50750 whole entry): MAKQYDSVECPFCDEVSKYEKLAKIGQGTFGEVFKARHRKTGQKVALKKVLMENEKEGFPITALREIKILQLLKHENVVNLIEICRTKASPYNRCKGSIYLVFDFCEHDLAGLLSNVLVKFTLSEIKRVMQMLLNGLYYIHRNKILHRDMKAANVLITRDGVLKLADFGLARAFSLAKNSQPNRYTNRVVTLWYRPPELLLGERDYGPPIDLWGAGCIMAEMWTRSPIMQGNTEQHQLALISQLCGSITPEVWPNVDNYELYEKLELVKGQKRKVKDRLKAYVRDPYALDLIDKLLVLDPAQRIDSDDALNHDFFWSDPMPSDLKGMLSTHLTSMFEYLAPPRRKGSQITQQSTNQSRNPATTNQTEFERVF
Sequence of Cdk9/cyclinT1 (O60563 whole entry partner): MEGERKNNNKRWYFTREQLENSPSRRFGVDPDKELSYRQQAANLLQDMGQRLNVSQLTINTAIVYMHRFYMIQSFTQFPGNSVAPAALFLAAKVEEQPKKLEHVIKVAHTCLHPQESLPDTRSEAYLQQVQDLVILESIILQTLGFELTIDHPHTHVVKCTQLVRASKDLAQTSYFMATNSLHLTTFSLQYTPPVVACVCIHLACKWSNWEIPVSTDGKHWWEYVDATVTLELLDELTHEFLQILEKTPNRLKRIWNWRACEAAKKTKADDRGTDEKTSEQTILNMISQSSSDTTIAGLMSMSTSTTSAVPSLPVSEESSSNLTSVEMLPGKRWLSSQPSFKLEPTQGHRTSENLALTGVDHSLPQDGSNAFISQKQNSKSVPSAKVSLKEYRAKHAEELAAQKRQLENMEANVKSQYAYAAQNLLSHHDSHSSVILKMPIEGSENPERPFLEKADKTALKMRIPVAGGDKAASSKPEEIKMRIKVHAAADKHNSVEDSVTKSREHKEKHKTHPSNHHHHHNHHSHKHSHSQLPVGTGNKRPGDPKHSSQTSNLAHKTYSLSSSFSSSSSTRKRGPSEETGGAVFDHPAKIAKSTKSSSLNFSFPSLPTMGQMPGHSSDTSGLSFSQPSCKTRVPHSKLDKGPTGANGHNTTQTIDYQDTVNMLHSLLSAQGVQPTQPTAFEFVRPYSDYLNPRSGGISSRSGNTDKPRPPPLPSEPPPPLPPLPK

Consider `O=C(Nc1cc(-c2cccc(NCC3CCOCC3)n2)c(Cl)cn1)C1(F)CCCNC1` (single isomer, unassigned) [Example 117], for which the IC50 turned out to be 230 nM. That is a sub-micromolar value.
In the case of `O=C(Nc1cc(-c2cccc(NCC3CCOCC3)n2)c(Cl)cn1)C1(F)CCCNC1` (single isomer, unassigned) [Example 118] it was 214 nM; in that of `C[C@@H]1CNC[C@H](C(=O)Nc2cc(-c3cccc(NCC4CCOCC4)n3)c(Cl)cn2)C1` (single isomer, unassigned) [Example 128], 1 nM; in that of `C[C@H]1CNC[C@@H](C(=O)Nc2cc(-c3cccc(NCC4CCOCC4)n3)c(Cl)cn2)C1` (single isomer, unassigned) [Example 129], 13 nM.
The figure for `CC1(C)C[C@H](CNc2cccc(-c3cc(NC(=O)[C@H]4CNCCO4)ncc3Cl)n2)CCO1` (single isomer, unassigned) [Example 130] is under 8 nM; for `CC1(C)C[C@@H](CNc2cccc(-c3cc(NC(=O)[C@H]4CNCCO4)ncc3Cl)n2)CCO1` (single isomer, unassigned) [Example 131] it is 38 nM; for `C[C@H]1CC[C@@H](C(=O)Nc2cc(-c3cccc(NCC4CCOCC4)n3)c(Cl)cn2)CN1` (single isomer, unassigned) [Example 141] it is under 8 nM.
The figure for `C[C@@H]1CC[C@H](C(=O)Nc2cc(-c3cccc(NCC4CCOCC4)n3)c(Cl)cn2)CN1` (single isomer, unassigned) [Example 142] is 151 nM; for `C[C@@H]1CC[C@@H](C(=O)Nc2cc(-c3cccc(NCC4CCOCC4)n3)c(Cl)cn2)CN1` (single isomer, unassigned) [Example 146] it is 1 nM.
In turn, `C[C@H]1CC[C@H](C(=O)Nc2cc(-c3cccc(NCC4CCOCC4)n3)c(Cl)cn2)CN1` (single isomer, unassigned) [Example 147] showed an IC50 of 5 nM.
For `CC1(C)C[C@@H](CNc2ccc(Cl)c(-c3cc(NC(=O)[C@H]4CNCCO4)ncc3Cl)n2)CCO1` (single isomer, unassigned) [Example 155], the IC50 worked out at 1 nM.
Consider `CC1(C)C[C@H](CNc2ccc(Cl)c(-c3cc(NC(=O)[C@H]4CNCCO4)ncc3Cl)n2)CCO1` (single isomer, unassigned) [Example 156], for which the IC50 came out at 4 nM.
As for `O=C(Nc1cc(-c2cccc(NCC3CCOCC3)n2)c(Cl)cn1)[C@H]1CNC[C@H](C(F)(F)F)C1` (single isomer, unassigned) [Example 162], the IC50 is 10 nM.
Take `O=C(Nc1cc(-c2cccc(NCC3CCOCC3)n2)c(Cl)cn1)[C@@H]1CNC[C@@H](C(F)(F)F)C1` (single isomer, unassigned) [Example 163]: half-maximal inhibition (IC50) required 129 nM.
The figure for `CC(C)S(=O)(=O)N1CCC[C@H](C(=O)Nc2cc(-c3nc(NC[C@@H]4CCOC(C)(C)C4)ccc3Cl)c(Cl)cn2)C1` (single isomer, unassigned) [Example 172] is 1 nM; for `CC(C)S(=O)(=O)N1CCC[C@H](C(=O)Nc2cc(-c3nc(NC[C@H]4CCOC(C)(C)C4)ccc3Cl)c(Cl)cn2)C1` (single isomer, unassigned) [Example 173] it is 1 nM; for `COC(=O)N1CCC[C@H](C(=O)Nc2cc(-c3nc(NC[C@@H]4CCOC(C)(C)C4)ccc3Cl)c(Cl)cn2)C1` (single isomer, unassigned) [Example 174] it is 1 nM.
On to `COC(=O)N1CCC[C@H](C(=O)Nc2cc(-c3nc(NC[C@H]4CCOC(C)(C)C4)ccc3Cl)c(Cl)cn2)C1` (single isomer, unassigned) [Example 175], for which half-maximal inhibition (IC50) required 2 nM.
For `O=C(Nc1cc(-c2cccc(NCC3CCOCC3)n2)c(Cl)cn1)[C@H]1CNC[C@@H](C(F)(F)F)C1` (single isomer, unassigned) [Example 182], the IC50 amounted to 4 nM.
Regarding `O=C(Nc1cc(-c2cccc(NCC3CCOCC3)n2)c(Cl)cn1)[C@@H]1CNC[C@H](C(F)(F)F)C1` (single isomer, unassigned) [Example 183], half-maximal inhibition (IC50) required 55 nM.
Molecule `C[C@@H]1CC[C@@H](C(=O)Nc2cc(-c3ccc(F)c(NCC4CCOCC4)n3)c(Cl)cn2)CN1` (single isomer, unassigned) [Example 189] gave an IC50 of 1 nM.
Molecule `C[C@H]1CC[C@H](C(=O)Nc2cc(-c3ccc(F)c(NCC4CCOCC4)n3)c(Cl)cn2)CN1` (single isomer, unassigned) [Example 190] showed an IC50 of 3 nM.
The figure for `C[C@@H]1CC[C@@H](C(=O)Nc2cc(-c3ccc(F)c(NCC4CCOCC4)n3)c(Cl)cn2)CN1C` (single isomer, unassigned) [Example 196] is 17 nM; for `C[C@H]1CC[C@H](C(=O)Nc2cc(-c3ccc(F)c(NCC4CCOCC4)n3)c(Cl)cn2)CN1C` (single isomer, unassigned) [Example 197] it is 4 nM; for `CO[C@@H]1CNC[C@H](C(=O)Nc2cc(-c3cccc(NCC4CCOCC4)n3)c(Cl)cn2)C1` (single isomer, unassigned) [Example 211] it is 2 nM.
With `CO[C@H]1CNC[C@@H](C(=O)Nc2cc(-c3cccc(NCC4CCOCC4)n3)c(Cl)cn2)C1` (single isomer, unassigned) [Example 212], the IC50 stood at 171 nM.
The figure for `O=C(Nc1cc(-c2nc(NCC3CCOCC3)ccc2Cl)c(Cl)cn1)C1CNCCOC1` (single isomer, unassigned) [Example 213] is 2 nM.
`O=C(Nc1cc(-c2nc(NCC3CCOCC3)ccc2Cl)c(Cl)cn1)C1CNCCOC1` (single isomer, unassigned) [Example 214]: the IC50 came to 1 nM.
On to `CC1(C)C[C@H](CNc2nc(-c3cc(NC(=O)[C@@H]4CCCNC4)ncc3Cl)ccc2F)CCO1` (single isomer, unassigned) [Example 215], for which the IC50 was 1 nM.
The figure for `CC1(C)C[C@@H](CNc2nc(-c3cc(NC(=O)[C@@H]4CCCNC4)ncc3Cl)ccc2F)CCO1` (single isomer, unassigned) [Example 216] is 1 nM; for `O=C(Nc1cc(-c2nc(NCC3CCOCC3)ccc2F)c(Cl)cn1)C1CNCCOC1` (single isomer, unassigned) [Example 222] it is 25 nM.
Molecule `O=C(Nc1cc(-c2nc(NCC3CCOCC3)ccc2F)c(Cl)cn1)C1CNCCOC1` (single isomer, unassigned) [Example 223] displayed an IC50 of 4 nM. This IC50 lies about 6.2-fold lower than the previous one.
In the case of `CC1(C)CO[C@@H](CNc2cccc(-c3cc(NC(=O)[C@@H]4CCCNC4)ncc3Cl)n2)CO1` (single isomer, unassigned) [Example 231], the IC50 came to 1 nM.
Take `CC1(C)CO[C@H](CNc2cccc(-c3cc(NC(=O)[C@@H]4CCCNC4)ncc3Cl)n2)CO1` (single isomer, unassigned) [Example 232]: the IC50 came out at 1 nM. This counts as single-digit nanomolar.
The figure for `CC1(C)COC[C@@H](CNc2cccc(-c3cc(NC(=O)[C@@H]4CCCNC4)ncc3Cl)n2)O1` (single isomer, unassigned) [Example 233] is 1 nM.
For the molecule `CC1(C)COC[C@H](CNc2cccc(-c3cc(NC(=O)[C@@H]4CCCNC4)ncc3Cl)n2)O1` (single isomer, unassigned) [Example 234], the IC50 came to 3 nM.
In the case of `COC[C@@H]1CC[C@@H](C(=O)Nc2cc(-c3cccc(NCC4CCOCC4)n3)c(Cl)cn2)CN1` (single isomer, unassigned) [Example 235] it was 2 nM.
